Laboratory results from PubChem BioAssay AID248 (DTP/NCI, 2004).
Values joined by “and” are separate entries in the source; they are usually repeats but may differ in a detail not shown here. Identical values can stand only once. Inconclusive results and toxic doses are left out. Cut-off read from the data, not from the text of the source: active = T/C of 150% or more; inactive = T/C below 125%.

Tested on: L1210 leukemia ip in BDF1 mice, survival T/C
Experiment: NCI In Vivo Anticancer Drug Screen. Data for tumor model L1210 Leukemia (intraperitoneal) in B6D2F1 (BDF1) mice
Conditions: endpoint: mean survival time, higher = longer survival
In short: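 Tumor was transplanted into mice, which were then dosed with test compound or vehicle alone. Survival was recorded for each group, and the treated figure was expressed relative to the control figure.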

[1] = dose: 50.0 mg/kg/injection, schedule: Q01DX001 (ip), vehicle: carboxymethylcellulose (CMC)
[2] = dose: 100.0 mg/kg/injection, schedule: Q01DX001 (ip), vehicle: carboxymethylcellulose (CMC)
[3] = dose: 200.0 mg/kg/injection, schedule: Q01DX001 (ip), vehicle: carboxymethylcellulose (CMC)
[4] = dose: 400.0 mg/kg/injection, schedule: Q01DX001 (ip), vehicle: carboxymethylcellulose (CMC)
[5] = dose: 25.0 mg/kg/injection, schedule: Q01DX009 (ip), vehicle: Klucel (hydroxypropylcellulose) (HPC)
[6] = dose: 25.0 mg/kg/injection, schedule: Q04DX003 (ip), vehicle: Klucel (hydroxypropylcellulose) (HPC)
[7] = dose: 50.0 mg/kg/injection, schedule: Q01DX009 (ip), vehicle: Klucel (hydroxypropylcellulose) (HPC)
[8] = dose: 50.0 mg/kg/injection, schedule: Q04DX003 (ip), vehicle: Klucel (hydroxypropylcellulose) (HPC)
[9] = dose: 100.0 mg/kg/injection, schedule: Q01DX009 (ip), vehicle: saline
[10] = dose: 200.0 mg/kg/injection, schedule: Q01DX009 (ip), vehicle: saline
[11] = dose: 100.0 mg/kg/injection, schedule: Q04DX003 (ip), vehicle: Klucel (hydroxypropylcellulose) (HPC)
[12] = dose: 100.0 mg/kg/injection, schedule: Q04DX003 (ip), vehicle: saline with Tween-80
[13] = dose: 200.0 mg/kg/injection, schedule: Q04DX003 (ip), vehicle: saline with Tween-80
[14] = dose: 400.0 mg/kg/injection, schedule: Q04DX003 (ip), vehicle: saline with Tween-80
[15] = dose: 100.0 mg/kg/injection, schedule: Q01DX001 (ip), vehicle: Klucel (hydroxypropylcellulose) (HPC)
[16] = dose: 100.0 mg/kg/injection, schedule: Q01DX009 (ip), vehicle: Klucel (hydroxypropylcellulose) (HPC)
[17] = dose: 200.0 mg/kg/injection, schedule: Q01DX001 (ip), vehicle: Klucel (hydroxypropylcellulose) (HPC)
[18] = dose: 200.0 mg/kg/injection, schedule: Q01DX009 (ip), vehicle: Klucel (hydroxypropylcellulose) (HPC)
[19] = dose: 400.0 mg/kg/injection, schedule: Q01DX001 (ip), vehicle: Klucel (hydroxypropylcellulose) (HPC)
[20] = dose: 400.0 mg/kg/injection, schedule: Q01DX009 (ip), vehicle: Klucel (hydroxypropylcellulose) (HPC)

Measured: T/C

CC1=C(C)Cc2c(OC(=O)c3ccccc3)ccc(OC(=O)c3ccccc3)c2C1
inactive: dose: 3.12 mg/kg/injection, schedule: Q01DX009 (ip), vehicle: water 101 % of control | dose: 6.25 mg/kg/injection, schedule: Q01DX009 (ip), vehicle: water 101 % of control | dose: 12.5 mg/kg/injection, schedule: Q01DX009 (ip), vehicle: water 96 % of control | dose: 25.0 mg/kg/injection, schedule: Q01DX009 (ip), vehicle: water 98 % of control and 119 % of control | dose: 50.0 mg/kg/injection, schedule: Q01DX009 (ip), vehicle: water 101 % of control | dose: 100.0 mg/kg/injection, schedule: Q01DX009 (ip), vehicle: water 90 % of control | dose: 200.0 mg/kg/injection, schedule: Q01DX009 (ip), vehicle: water 90 % of control | dose: 400.0 mg/kg/injection, schedule: Q01DX009 (ip), vehicle: water 97 % of control

Oc1ccc(Cl)cc1C1N(Cc2ccc(N(CCCl)CCCl)cc2Cl)CCCN1Cc1ccc(N(CCCl)CCCl)cc1Cl
inactive: [1] 113 % of control | [2] 96 % of control | [3] 105 % of control | [4] 96 % of control

CCN1CSC(=S)N(CC)C1
inactive: dose: 12.5 mg/kg/injection, schedule: Q04DX003 (ip), vehicle: Klucel (hydroxypropylcellulose) (HPC) 96 % of control | [5] 103 % of control | [6] 112 % of control | [7] 109 % of control | [8] 103 % of control

CCOCCCSP(SCCCOCC)SCCCOCC
inactive: [9] 101 % of control | [10] 102 % of control | dose: 400.0 mg/kg/injection, schedule: Q01DX009 (ip), vehicle: saline 104 % of control

Cc1ccc(S(=O)(=O)OCC(CO)(COS(=O)(=O)c2ccc(C)cc2)[N+](=O)[O-])cc1
inactive: dose: 50.0 mg/kg/injection, schedule: Q01DX009 (ip), vehicle: saline 104 % of control | [9] 94 % of control | [11] 97 % of control | [10] 96 % of control | dose: 200.0 mg/kg/injection, schedule: Q04DX003 (ip), vehicle: Klucel (hydroxypropylcellulose) (HPC) 105 % of control

c1ccc2c(c1)cc1ccc3cccc4ncc2c1c34
inactive: [12] 86 % of control | [13] 96 % of control | [14] 88 % of control

NCCc1ccc(OCc2ccccc2)c(OCc2ccccc2)c1
inactive: dose: 12.5 mg/kg/injection, schedule: Q01DX009 (ip), vehicle: saline 108 % of control | dose: 12.5 mg/kg/injection, schedule: Q04DX003 (ip), vehicle: saline 98 % of control | dose: 25.0 mg/kg/injection, schedule: Q01DX009 (ip), vehicle: saline 97 % of control | dose: 25.0 mg/kg/injection, schedule: Q04DX003 (ip), vehicle: saline 102 % of control | dose: 50.0 mg/kg/injection, schedule: Q04DX003 (ip), vehicle: saline 98 % of control

CCN(CCCl)CC1C(c2ccccc2)C1c1ccccc1 (stereo not given)
inactive: dose: 25.0 mg/kg/injection, schedule: Q04DX002 (ip), vehicle: Klucel (hydroxypropylcellulose) (HPC) 94 % of control | dose: 50.0 mg/kg/injection, schedule: Q04DX002 (ip), vehicle: Klucel (hydroxypropylcellulose) (HPC) 87 % of control

COC1=NS(=O)(=O)C2CCCC/C=C\C2O1 (stereo not given)
inactive: dose: 150.0 mg/kg/injection, schedule: Q04DX002 (ip), vehicle: Klucel (hydroxypropylcellulose) (HPC) 110 % of control | dose: 300.0 mg/kg/injection, schedule: Q04DX002 (ip), vehicle: Klucel (hydroxypropylcellulose) (HPC) 103 % of control

CCCCN(CCCC)c1ccc(/C=C/c2ccncc2)cc1
inactive: [15] 95 % of control | [16] 93 % of control | [17] 101 % of control | [18] 101 % of control | [19] 96 % of control | [20] 90 % of control

CCN(CC)CCCC(C)Nc1cc(N)nc2nc(-c3ccc(Br)cc3)cnc12 (stereo not given)
inactive: dose: 75.0 mg/kg/injection, schedule: Q01DX001 (ip), vehicle: saline 106 % of control | dose: 150.0 mg/kg/injection, schedule: Q01DX001 (ip), vehicle: saline 101 % of control

COc1cc(N(CCCl)CCCl)ccc1/C=N/Nc1nncn1N
inactive: [1] 101 % of control | [2] 98 % of control | [3] 110 % of control | [4] 104 % of control

CCOC(=O)c1ccc(CCCCl)cc1
inactive: [15] 98 % of control | [17] 88 % of control | [19] 91 % of control

Cc1ccc(Cl)cc1NC(=O)c1ccc(Cl)cc1
inactive: [16] 99 % of control | dose: 100.0 mg/kg/injection, schedule: Q04DX003 (ip), vehicle: saline 114 % of control | [18] 89 % of control | dose: 200.0 mg/kg/injection, schedule: Q04DX003 (ip), vehicle: saline 97 % of control | [20] 93 % of control | dose: 400.0 mg/kg/injection, schedule: Q04DX003 (ip), vehicle: saline 119 % of control

CC(=O)Nc1cc(Cl)c(Cl)cc1Cl
inactive: [12] 103 % of control | [13] 102 % of control | [14] 96 % of control

O=C(NCc1ccco1)NCc1ccco1
inactive: [5] 91 % of control | [6] 103 % of control | [7] 96 % of control | [8] 97 % of control | [11] 98 % of control and 101 % of control

O=C(N/N=C/c1ccc(O)cc1O)c1ccc(O)cc1
inactive: dose: 100.0 mg/kg/injection, schedule: Q04DX002 (ip), vehicle: Klucel (hydroxypropylcellulose) (HPC) 92 % of control | dose: 200.0 mg/kg/injection, schedule: Q04DX002 (ip), vehicle: Klucel (hydroxypropylcellulose) (HPC) 103 % of control | dose: 400.0 mg/kg/injection, schedule: Q04DX002 (ip), vehicle: Klucel (hydroxypropylcellulose) (HPC) 103 % of control

COc1ccc(NC(=O)Oc2ccc(-c3ccccc3)cc2Cl)c(OC)c1
inactive: [16] 97 % of control | [18] 101 % of control | [20] 92 % of control

CCCCCCCCCCCCCCn1cnc2c(=S)nc[nH]c21
inactive: dose: 12.5 mg/kg/injection, schedule: Q01DX005 (ip), vehicle: other 101 % of control | dose: 25.0 mg/kg/injection, schedule: Q01DX005 (ip), vehicle: other 101 % of control | dose: 50.0 mg/kg/injection, schedule: Q01DX005 (ip), vehicle: other 96 % of control | dose: 100.0 mg/kg/injection, schedule: Q01DX005 (ip), vehicle: other 96 % of control | dose: 200.0 mg/kg/injection, schedule: Q01DX005 (ip), vehicle: other 95 % of control

O=c1[nH]cnc2nc(SCc3ccccc3NCBr)[nH]c12
inactive: dose: 31.3 mg/kg/injection, schedule: Q04DX002 (ip), vehicle: Klucel (hydroxypropylcellulose) (HPC) 91 % of control | dose: 62.5 mg/kg/injection, schedule: Q04DX002 (ip), vehicle: Klucel (hydroxypropylcellulose) (HPC) 91 % of control | dose: 125.0 mg/kg/injection, schedule: Q04DX002 (ip), vehicle: Klucel (hydroxypropylcellulose) (HPC) 88 % of control
